Experimental findings from EP1311531B1, “STEROID DERIVED ANTIBIOTICS” (Brigham Young University, priority 2000, dated 2002) are described below.

Values after ≈ are worked out from the molar mass of the structure shown. Like-named read-outs stand apart in the source and are kept apart here.

Data set [1] has as its system E. coli (ATCC 10798). Briefly: MIC and MBC measurement. The following applies: Escherichia coli, ATCC10798, E. coli (ATCC 10798); for MIC: read-out: MIC. In kind it is cell-based, Escherichia coli. The procedure: (§1) General: Microorganisms. Reference strains were purchased from the American Type Culture Collection (Rockville, MD) or Bactrol disks from Difeo Laboratories (Detroit, MI). […] Bacterial strains were maintained on Mueller-Hinton agar plates, and Candida albicans was maintained on Sabouraud Dextrose agar plates.
(§2) Aliquots (20 mL) of the homogeneous solution were then poured in sterile plastic petri dishes (100 x 15 mm, Fisher Scientific). Solutions of compounds were made by dissolving the HCl salt of the respective compound into an appropriate amount of deionized and sterilized water followed by microfiltration.
(§3) Aliquots of 1 mL of the suspension were added to test tubes containing 1 mL TSB and incrementally varied concentrations of cholic acid derivatives and/or erythromycin or novobiocin. […] Additionally, an alliquot from each of the samples showing no measurable turbidity was subcultured on TSA plates (alliquots were diluted to provide fewer than 300 CFU). Colonies that grew on the subculture after overnight incubation were counted and the number of CFU/mL in the samples were calculated. The calculated values were compared to the number of CFU/mL in the original inoculum.

The test system of data set [2] is E. coli (ATCC 10798). Description: Sensitization to erythromycin or novobiocin (outer membrane permeabilization, FIC). The format is cell-based, Escherichia coli. The following applies: E. coli (ATCC 10798); for MBC: Escherichia coli. The procedure: (§4) FICs can be performed by checkerboard titrations of compounds in one dimension of a microtiter plate, and of antibiotics in the other dimension, for example. The FIC is calculated by looking at the impact of one antibiotic on the MIC of the other and vice versa. […] Preferably, an FIC of less than 0.5 is obtained for synergism. As used herein, FIC can be determined as follows: FIC = (MIC(compound in combination))/(MIC(compound alone)) + (MIC(antibiotic in combination))/(MIC(antibiotic alone)) [formula]
(§5) Aliquots of 1 mL of the suspension were added to test tubes containing 1 mL TSB and incrementally varied concentrations of cholic acid derivatives and/or erythromycin or novobiocin. In the sensitization experiments, erythromycin or novobiocin were added 15 minutes later than the cholic acid derivatives. The samples were subjected to stationary incubation at 37°C for 24 hours. Sample turbidity was determined by measuring absorption at 760 nm (HP 8453 UV-Visible Chemstation, Hewlett Packard). Additionally, an alliquot from each of the samples showing no measurable turbidity was subcultured on TSA plates (alliquots were diluted to provide fewer than 300 CFU). Colonies that grew on the subculture after overnight incubation were counted and the number of CFU/mL in the samples were calculated. The calculated values were compared to the number of CFU/mL in the original inoculum.
They were also tested for the ability to permeabilize the outer membrane of Gram-negative bacteria, causing sensitization to hydrophobic antibiotics that cannot cross the outer membrane. The permeabilization of the outer membrane was measured using erythromycin and novobiocin.

Data set [3] has as its system Escherichia coli ATCC 25922. Description: MIC and MBC measurement. The format is cell-based.
Excerpt: (§6) General: Microorganisms. Reference strains were purchased from the American Type Culture Collection (Rockville, MD) or Bactrol disks from Difeo Laboratories (Detroit, MI). The following specific ATCC strains were used: 10798 Escherichia coli, 25922 Escherichia coli, 13883 Klebsiella pneumoniae, 27853 Pseudomonas aeruginosa, 14028 Salmonella typhimurium, 29212 Enterococcus faecalis, 25923 Staphylococcus aureus, 19615 Streptococcus pyogenes, and 90028 Candida albicans. Bacterial strains were maintained on Mueller-Hinton agar plates, and Candida albicans was maintained on Sabouraud Dextrose agar plates.
(§7) Tryptic soy broth (TSB) was made by dissolving 27.5 grams of tryptic soy broth without dextrose (DIFCO Laboratories) in 1 liter of deionized water and sterilizing at 121 °C for 15 minutes. Solid agar (TSA) plates were made by dissolving 6.4 grams of tryptic soy broth and 12 grams of agar (purified grade, Fischer Scientific) in 800 mL of deionized water and sterilizing at 121 °C for 20 minutes. Aliquots (20 mL) of the homogeneous solution were then poured in sterile plastic petri dishes (100 x 15 mm, Fisher Scientific). Solutions of compounds were made by dissolving the HCl salt of the respective compound into an appropriate amount of deionized and sterilized water followed by microfiltration.
as §5, with “inoculum. […]” for “inoculum.”

For data set [4], the system named is Pseudomonas aeruginosa ATCC 27853. Briefly: MIC and MBC measurement. The format is cell-based. The procedure:
as §1, §2, §3

Data set [5] shares this test system. Description: Sensitization to erythromycin, novobiocin or rifampicin (permeabilization, FIC). In kind it is cell-based. The following applies: P. aureginosa (ATCC 27853). The procedure:
as §4, §5
Concentrations of 0.5, 1.0 or 3.0 µg/mL of these antibiotics were used, and the concentrations of the cholic acid derivatives required to inhibit bacterial growth of Gram-negative strains were determined.

For data set [6], the system named is Escherichia coli ATCC 25922. The description is as above. The note with it: for c: concentration of the compounds required to lower the MIC of erythromycin from 30 to 1 µg/mL: Table 16, with E. coli.
Procedure: FICs can be performed by checkerboard titrations of compounds in one dimension of a microtiter plate, and of antibiotics in the other dimension, for example. The FIC is calculated by looking at the impact of one antibiotic on the MIC of the other and vice versa. […] As used herein, FIC can be determined as follows: FIC = (MIC(compound in combination))/(MIC(compound alone)) + (MIC(antibiotic in combination))/(MIC(antibiotic alone)) [formula]
Data set [7] deals with Staphylococcus aureus ATCC 25923. Description: MIC and MBC measurement. In kind it is cell-based. The following applies: Table 16 (MIC^a), S. aureus (ATTC 25923).
Excerpt: as §6, §7
as §5, with “inoculum. […]” for “inoculum.”

The nature of data set [8]: Minimum hemolytic concentration (MHC). The note with it: Table 16. In kind it is cell-based. The procedure:
Minimum inhibition concentrations (MIC) and minimum hemolytic concentrations (MHC) were measured as described in Li et al., Antimicrob. Agents. Chemother., 1999, 43, 1347. […]

The nature of data set [9]: Stability (half-lives) in phosphate buffer, decomposition observed via HPLC. The note with it: 50 mM phosphate buffer, room temperature; for stabilities (half-lives) pH 2.0: pH 2.0, approximately 10 mM; for stabilities (half-lives) pH 7.0: pH 7.0, approximately 10 mM; for stabilities (half-lives) pH 12.0: pH 12.0, approximately 10 mM. The format is physicochemical. The procedure:
Compounds 352 - 354 were dissolved in 50 mM phosphate buffered water (pH 2.0, 7.0 or 12.0) at approximately 10 mM concentrations. […] These compounds were used since they contain a chromophore that facilitated monitoring of decomposition by absorption methods common in the HPLC apparatus used.

The mark [10] stands for this setting: ATCC27853, Table 6, P. aureginosa (ATCC 27853).
[11] abbreviates: Escherichia coli, ATCC25922, Table 16 (MIC^b), E. coli (ATTC 25922), read-out: MIC.
Setting [12] is: Staphylococcus aureus, ATCC25923, read-out: MIC.

One may read the MBC as the smallest concentration meeting the test's criterion for killing. Broadly, the MIC is the lowest concentration found to suppress growth. Regarding `C[C@H](CCCN(C)Cc1ccccc1)[C@H]1CC[C@H]2[C@@H]3[C@H](OCCNC(=N)N)C[C@@H]4C[C@H](OCCNC(=N)N)CC[C@]4(C)[C@H]3C[C@H](OCCNC(=N)N)[C@]12C` [Compound 4], the MBC came to 10 µg/mL (≈ 13.3 µM) with E. coli (ATCC 10798) [1] (Table 1, read-out: MBC); 10 µg/mL with E. coli (ATCC 10798) [2] (ATCC10798, Table 2, with erythromycin); 10 µg/mL with E. coli (ATCC 10798) [2] (ATCC10798, Table 3, with novobiocin); 9 µg/mL (≈ 12 µM) in [3] (Escherichia coli, ATCC25922, Table 4, E. coli (ATCC 25922)); 40 µg/mL (≈ 53.1 µM) in data set [4] (setting [10]); 40 µg/mL in [5] (Pseudomonas aeruginosa, ATCC27853, Table 7, with erythromycin). Moreover, the MBC in data set [6] (Escherichia coli, ATCC25922) was 5 µg/mL. Further, the MIC is 5 µg/mL (≈ 6.64 µM) in the data set with E. coli (ATCC 10798) [1] (Table 1); 6 µg/mL (≈ 7.97 µM) in data set [3] (Escherichia coli, ATCC25922, Table 4, E. coli (ATCC 25922), read-out: MIC); 15 µg/mL (≈ 19.9 µM) in [4] (setting [10]). The “concentration required to lower the MIC of erythromycin from 70 µg/mL to 1 µg/mL” value in the data set with E. coli (ATCC 10798) [2] (Table 2, with erythromycin) is 1.5 µg/mL. Besides, the “concentration required to lower the MIC of erythromycin from 240 µg/mL to 5 µg/mL” value in data set [5] (Table 7, with erythromycin) is listed as 5 µg/mL. In addition, in data set [5] (Table 8, with novobiocin), the “concentration required to lower the MIC of novobiocin from >500 µg/mL to 1 µg/mL” value stood at 6 µg/mL. The “concentration required to lower the MIC of erythromycin from 60 µg/mL to 1 µg/mL” value in data set [6] (Table 5, E. coli (ATCC 25922), with erythromycin) worked out at 1 µg/mL.
Turning to `C[C@H](CCC(=O)OCC[N+](C)(C)C)[C@H]1CC[C@H]2[C@@H]3[C@H](OC(=O)CN)C[C@@H]4C[C@H](OC(=O)CN)CC[C@]4(C)[C@H]3C[C@H](OC(=O)CN)[C@]12C` [Compound 324], the minimal inhibitory concentration (MIC) in data set [3] (setting [11]) worked out at 60 µg/mL; in data set [7] (setting [12]) it was 15 µg/mL. The MHC in data set [8] is >200 µg/mL. The “c: concentration of the compounds required to lower the MIC of erythromycin from 30 to 1 µg/mL” value in data set [6] was 10 µg/mL.
Regarding `C[C@H](CCC(=O)OCC[N+](C)(C)C)[C@H]1CC[C@H]2[C@@H]3[C@H](OC(=O)CCN)C[C@@H]4C[C@H](OC(=O)CCN)CC[C@]4(C)[C@H]3C[C@H](OC(=O)CCN)[C@]12C` [Compound 325], the MIC in data set [3] (setting [11]) was 30 µg/mL; in data set [7] (setting [12]), 11 µg/mL. Moreover, the MHC in data set [8] is reported as >200 µg/mL. The “c: concentration of the compounds required to lower the MIC of erythromycin from 30 to 1 µg/mL” value in data set [6] is given as 2.0 µg/mL.
For `C[C@H](CCC(=O)OCC[N+](C)(C)C)[C@H]1CC[C@H]2[C@@H]3[C@H](OC(=O)CCCN)C[C@@H]4C[C@H](OC(=O)CCCN)CC[C@]4(C)[C@H]3C[C@H](OC(=O)CCCN)[C@]12C` [Compound 326] the same measures were 23 µg/mL, 14 µg/mL, >200 µg/mL and 2.0 µg/mL.
Regarding `C[C@H](CCC(=O)O)[C@H]1CC[C@H]2[C@@H]3[C@H](OC(=O)CN)C[C@@H]4C[C@H](OC(=O)CN)CC[C@]4(C)[C@H]3C[C@H](OC(=O)CN)[C@]12C` [Compound 327], the MIC is >100 µg/mL in data set [3] (Table 16, second MIC column (MIC^b), E. coli (ATTC 25922)) and >100 µg/mL in data set [7]. Besides, the MHC in data set [8] is listed as >100 µg/mL. In addition, the “c: concentration of the compounds required to lower the MIC of erythromycin from 30 to 1 µg/mL” value in [6] is on record as >100 µg/mL.
As for `CCCCCCCCOC(=O)CC[C@@H](C)[C@H]1CC[C@H]2[C@@H]3[C@H](OC(=O)CN)C[C@@H]4C[C@H](OC(=O)CN)CC[C@]4(C)[C@H]3C[C@H](OC(=O)CN)[C@]12C` [Compound 341], the MIC in data set [3] (setting [11]) came out at 1 µg/mL (≈ 1.45 µM); in data set [7] (setting [12]) it was 1.8 µg/mL (≈ 2.6 µM). This compound registered an MHC in [8] of 4.0 µg/mL. Besides, the “c: concentration of the compounds required to lower the MIC of erythromycin from 30 to 1 µg/mL” value in data set [6] was found to be 0.7 µg/mL.
Take `CCCCCCCCOC(=O)CC[C@@H](C)[C@H]1CC[C@H]2[C@@H]3[C@H](OC(=O)CCCN)C[C@@H]4C[C@H](OC(=O)CCCN)CC[C@]4(C)[C@H]3C[C@H](OC(=O)CCCN)[C@]12C` [Compound 343]: the minimal inhibitory concentration (MIC) in [3] (setting [11]) worked out at 3.5 µg/mL (≈ 4.51 µM); in data set [7] (setting [12]), 1.2 µg/mL (≈ 1.55 µM). Besides, in [8], the MHC was <10 µg/mL. In [6], the “c: concentration of the compounds required to lower the MIC of erythromycin from 30 to 1 µg/mL” value is listed as 3.5 µg/mL.
Regarding `C[C@H](CCCN(C)Cc1ccccc1)[C@H]1CC[C@H]2[C@@H]3[C@H](OC(=O)CN)C[C@@H]4C[C@H](OC(=O)CN)CC[C@]4(C)[C@H]3C[C@H](OC(=O)CN)[C@]12C` [Compound 352], in [9], the “stabilities (half-lives) pH 2.0” value is given as >37 days, the “stabilities (half-lives) pH 7.0” value is 28 days and the “stabilities (half-lives) pH 12.0” value is listed as <30 minutes.
The like results for `C[C@H](CCCN(C)Cc1ccccc1)[C@H]1CC[C@H]2[C@@H]3[C@H](OC(=O)CCN)C[C@@H]4C[C@H](OC(=O)CCN)CC[C@]4(C)[C@H]3C[C@H](OC(=O)CCN)[C@]12C` [Compound 353] were, in that order, >37 days, 37 days and <30 minutes.
As for `CC[C@H]1OC(=O)[C@H](C)[C@@H](O[C@H]2C[C@@](C)(OC)[C@@H](O)[C@H](C)O2)[C@H](C)[C@@H](O[C@@H]2O[C@H](C)C[C@H](N(C)C)[C@H]2O)[C@](C)(O)C[C@@H](C)C(=O)[C@H](C)[C@@H](O)[C@]1(C)O` [erythromycin, reference compound], the MIC in the data set on E. coli (ATCC 10798) [1] (antibiotic alone) turned out to be 70 µg/mL (≈ 95.4 µM); in [3] (Escherichia coli, ATCC25922, antibiotic alone, E. coli (ATCC 25922), read-out: MIC) it was 30 µg/mL (≈ 40.9 µM); in data set [4] (ATCC27853, antibiotic alone, P. aureginosa (ATCC 27853)), 240 µg/mL (≈ 327 µM).
